Results on 23 compounds are retold here after patent USRE35886E, “Phosphonic acid derivatives and use thereof” (Takeda Chemical Industries, Ltd., priority 1991, dated 1998).

Where a SMILES comes first, the peptide text is derived from it. Where no end group is shown, it is not given here. [ ]: non-standard residue; d: D form. The star is where a group is joined. Sta = CC(C)C[C@H](N)[C@@H](O)CC(=O)O; Isovaleryl = CC(C)CC(=O)*

For the first experiment, the target named is T1, Endothelin-Converting Enzyme (Sus scrofa, UniProt A0A8W4FBH0).
T1 construct: 1.0% Triton X-100 was added to solubilize enzyme activity; from tissue; host or cells: pig lung, solubilised 100,000×G membrane fraction
T1 sequence (A0A8W4FBH0 1-751): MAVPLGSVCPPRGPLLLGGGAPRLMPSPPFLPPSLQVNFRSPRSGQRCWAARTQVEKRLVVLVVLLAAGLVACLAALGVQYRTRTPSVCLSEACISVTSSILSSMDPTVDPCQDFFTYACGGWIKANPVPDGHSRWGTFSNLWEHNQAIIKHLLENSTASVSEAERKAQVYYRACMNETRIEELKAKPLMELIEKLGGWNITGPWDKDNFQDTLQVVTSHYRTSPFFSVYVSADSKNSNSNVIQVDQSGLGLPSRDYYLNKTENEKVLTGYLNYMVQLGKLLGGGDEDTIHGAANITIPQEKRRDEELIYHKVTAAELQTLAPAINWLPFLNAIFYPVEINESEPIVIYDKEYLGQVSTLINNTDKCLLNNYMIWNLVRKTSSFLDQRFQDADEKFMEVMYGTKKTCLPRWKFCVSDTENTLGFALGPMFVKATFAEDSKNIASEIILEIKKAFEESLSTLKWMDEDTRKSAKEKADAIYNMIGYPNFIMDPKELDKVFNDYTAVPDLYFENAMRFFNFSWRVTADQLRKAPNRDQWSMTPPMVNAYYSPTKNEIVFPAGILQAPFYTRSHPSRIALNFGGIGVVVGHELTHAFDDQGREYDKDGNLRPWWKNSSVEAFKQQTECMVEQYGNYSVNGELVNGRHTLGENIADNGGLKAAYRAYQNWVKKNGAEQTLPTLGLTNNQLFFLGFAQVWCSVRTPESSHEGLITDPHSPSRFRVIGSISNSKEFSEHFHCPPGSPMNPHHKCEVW
As to the kind of experiment: Measurement of endothelin-converting enzyme inhibiting activity of phosphonic acid derivatives (pig big endothelin I (1-39) substrate, endothelin I sandwich enzyme immunoassay). The experiment is classed as biochemical. To be noted: 37° C., 1 hour, pH 7.2, pig lung solubilized membrane fraction. The procedure: Measurement of Endothelin-Converting Enzyme Inhibiting Activity of Phosphonic Acid Amide Derivatives
In 1.5-ml centrifugal tube (BIO-BIK), 80 μl of 50 mM bis-Trispropane-hydrochloric acid buffer (pH 7.2) supplemented with 1.0 mg/ml bovine serum albumin, 0.1M sodium chloride, 1.0 mM phenylmethanesulfonyl fluoride (PMSF, Wako Pure Cnemical Industries), 1.0 μg/ml leupeptin (Peptide Institute Inc.), 1.0 μg/ml chymostatin (Peptide Institute Inc.), 1.0 μg/ml pepstatin A (Peptide Institute Inc.), 1.0 μM E-64 (Peptide Institute Inc.), 1.0 μm thiorphan (Sigma) and 1.0 μM angiotensin-converting enzyme inhibitor [CV-5975, Inada et al., Japanese Journal of Pharmacology, 47, 135-141 (1988)], 5 μl of a sample solution to be tested (an aqueous solution or an aqueous solution containing 2% dimethyl sulfoxide) or 5 μl of distilled water for the control plot, and 10 μl of an endothelin-converting enzyme sample prepared as described in the following reference example were placed. After standing at 37° C. for 30 minutes, 5 μl of a substrate solution [physiological phosphate buffer (PBS, containing 0.2 g of potassium chloride, 0.2 g of potassium dihydrogenphosphate, 8.0 g of sodium chloride and 1.14 g of disodium hydrogenphosphate in 1,000 ml of distilled water) supplemented with 1.0×10^-6 M pig big endothelin I (1-39) (Peptide Institute Inc.) and 1.0 mg/ml bovine serum albumin] was added thereto to initiate enzyme reaction. After reaction at 37° C. for 1 hour, the reaction mixture was boiled in boiling water for 5 minutes, thereby terminating the reaction: The resulting insoluble material was removed by centrifugation, and endothelin I (1-21) produced by the enzyme reaction contained in 10 μl of the supernatant was quantified by the endothelin I-specific sandwich enzyme immunoassay method already established [Suzuki et al., J. Immuno. Meth., 188, 245-250 (1989)], and compared with the amount of endothelin produced in the control plot to evaluate the enzyme inhibiting activity.
As endothelin-converting enzymes existing in organisms, two kinds of metalloenzymes different in enzymological properties are generally known. One exits in the cytoplasms, and the other is membrane-bound. The latter is characterized by that it is inhibited with phosphoramidon known as an inhibitor for metalloproteases [Matsumura et al., FEBS Lett., 272, 166-170 (1990)]. The endothelin-converting enzyme in the present invention means the membrane-bound enzyme of these two kinds of enzymes.
(§1) About 500 g of the pig lung (of one pig) was sliced and disrupted in 2.0 liter of PBS supplemented with 0.05% sodium azide, 1.0 mM dithiothreitol, 1.0 mM PMSF, 1.0 μg/ml leupeptin, 1.0 μg/ml chymostatin, 1.0 μg/ml pepstatin A and 1.0 μM E-64, and then homogenized (1 minute×5 times) by a Polytron mixer ([…]). The centrifuged supernatant (240×G, 5 minutes) was further centrifuged at 10,000×G for 15 minutes, and the resulting supernatant was subjected to ultracentrifuge (100,000×G, 90 minutes) to obtain membrane fraction as a precipitate. To this precipitate, 1.0% Triton X-100 was added to solubilize enzyme activity. […] This was diluted to 2.0 mg of protein/ml to use for assaying the activity of enzyme inhibitors.
For the compound `CC(C)[C@H](NP(=O)(O)CCc1ccccc1)C(=O)N[C@@H](Cc1c[nH]c2ccccc12)C(=O)O` [N-(Phenethylphosphonyl)-Val--Trp.2Na, N-(Phenethylphosphonyl)-Val-Trp.2Na], the IC50 is 2800 nM.
`CC(C)C[C@H](NC(=O)[C@H](CC(C)C)NP(=O)(O)CCc1ccccc1)C(=O)O` [N-(Phenethylphosphonyl)-Leu--Leu.2Na, N-(Phenethylphosphonyl)-Leu-Leu.2Na] gave an IC50 of 4800 nM.
The compound `CC(C)CCP(=O)(O)N[C@@H](CC(C)C)C(=O)N[C@@H](Cc1c[nH]c2ccccc12)C(=O)O` [N-(Isoamylphosphonyl)-Leu--Trp.2Na, N-(Isoamylphosphonyl)-Leu-Trp.2Na] yielded an IC50 of 700 nM.
Compound `CC[C@H](C)[C@H](NP(=O)(O)CCc1ccccc1)C(=O)N[C@@H](Cc1c[nH]c2ccccc12)C(=O)O` [N-(Phenethylphosphonyl)-Ile--Trp.2Na, N-(Phenethylphosphonyl)-Ile-Trp.2Na] had an IC50 of 1200 nM.
Compound `CC(C)C[C@H](NP(=O)(O)CCc1ccccc1)C(=O)N[C@@H](Cc1c[nH]c2ccccc12)C(=O)O` [N-(Phenethylphosphonyl)-Leu--Trp.2Na, N-(Phenethylphosphonyl)-Leu-Trp.2Na] had an IC50 of 200 nM.
With `CCCC[C@H](NP(=O)(O)CCc1ccccc1)C(=O)N[C@@H](Cc1c[nH]c2ccccc12)C(=O)O` [N-(Phenethylphosphonyl)-Nle--Trp.2Na, N-(Phenethylphosphonyl)-Nle-Trp.2Na], the IC50 was 1400 nM.
Consider `CC(C)C[C@H](NP(=O)(O)CCc1cccc2ccccc12)C(=O)N[C@@H](Cc1c[nH]c2ccccc12)C(=O)O` [N-[2-(1-Naphthyl)ethylphosphonyl]-Leu-Trp.2Na], for which the IC50 amounted to 400 nM.
`CC(C)C[C@H](NP(=O)(O)CCc1ccccc1)C(=O)N[C@@H](Cc1ccccc1)C(=O)O` [N-(Phenethylphosphonyl)-Leu--Phe.2Na, N-(Phenethylphosphonyl)-Leu-Phe.2Na]: the IC50 was 5700 nM.
The same measure, in the same setting: next, `CC(C)C[C@H](NP(=O)(O)Cc1ccc2ccccc2c1)C(=O)N[C@@H](Cc1c[nH]c2ccccc12)C(=O)O` [N-(2-Naphthylmethylphosphonyl)-Leu-Trp.2Na]: 1000 nM.
`CC(C)C[C@H](NP(=O)(O)Cc1cccc2ccccc12)C(=O)N[C@@H](Cc1c[nH]c2ccccc12)C(=O)O` [N-(1-Naphthylmethylphosphonyl)-Leu-Trp.2Na] yielded an IC50 of 200 nM.
`O=C(O)[C@H](Cc1c[nH]c2ccccc12)NC(=O)[C@H](CC1CCCCC1)NP(=O)(O)CCc1ccccc1` [N-(Phenethylphosphonyl)-Cha--Trp.2Na, N-(Phenethylphosphonyl)-Cha-Trp.2Na] came in with an IC50 of 1000 nM.
In turn, `CC(C)C[C@H](NP(=O)(O)CCc1ccc2ccccc2c1)C(=O)N[C@@H](Cc1c[nH]c2ccccc12)C(=O)O` [N-[2-(2-Naphthyl)ethylphosphonyl]-Leu-Trp.2Na] yielded an IC50 of 100 nM.
The same measure, in the same setting: next, `O=C(O)[C@H](Cc1c[nH]c2ccccc12)NC(=O)[C@H](Cc1ccccc1)NP(=O)(O)CCc1ccccc1` [N-(Phenethylphosphonyl)-Phe--Trp.Na, N-(Phenethylphosphonyl)-Phe-Trp.2Na]: 500 nM.

The subject of a further experiment is membrane-bound endothelin-converting enzyme.
Assay: not given
To be noted: FEBS Lett., 272, 166-170 (1990); cited from earlier work.
As for `CC(C)C[C@H](NP(=O)(O)O[C@@H]1O[C@@H](C)[C@H](O)[C@@H](O)[C@H]1O)C(=O)N[C@@H](Cc1c[nH]c2ccccc12)C(=O)O` [Phosphoramidone], the “inhibition of membrane-bound enzyme (in words)” value is given as “inhibited”.

The next experiment has as its target T1, Endothelin-Converting Enzyme. As to the kind of experiment: Kinetic coefficient (Lineweaver-Burk plot). The experiment is classed as biochemical. To be noted: substrate pig big endothelin, read-out: Michaelis coefficient. The method, then: The Michaelis coefficient of this enzyme to pig big endothelin was calculated to be about 5×10^-6 M from the Lineweaver-Burk plot.
In the case of “pig big endothelin: substrate; pig big endothelin I (1-39) (Peptide Institute Inc.) (CSCSSLMDKECVYFCHLDIIWVNTPEHIVPYGLGSPSRS; ends and bridges not checked; cysteine pairing not given here; UniProt P09558 53-91, looked up, fragment)”, the Km was roughly 5 µM.

A further experiment has the same target. As to the kind of experiment: Inhibition effect of various protease inhibitors on endothelin-converting enzyme. To be noted: Concentration 100 μM; read-out: Inhibiting Ratio (%). The experiment is classed as biochemical, pig. The method, then: as §1
Take `CC(C)C[C@H](NC(=O)[C@@H](NC(=O)N[C@@H](Cc1ccccc1)C(=O)O)[C@@H]1CCN=C(N)N1)C(=O)N[C@H](C=O)Cc1ccccc1` [Chymostatin]: the inhibition at 100 µM was 2%.
Same read-out and setting: next, `CC(C)C[C@H](NP(=O)(O)O[C@@H]1O[C@@H](C)[C@H](O)[C@@H](O)[C@H]1O)C(=O)N[C@@H](Cc1c[nH]c2ccccc12)C(=O)O` [Phosphoramidone]: 70%; `CC(C)C[C@H](NC(=O)[C@H]1O[C@@H]1C(=O)O)C(=O)NCCCCN=C(N)N` [Example E-64]: 9%.
The same measure, in the same setting: to `CC(C)CC(=O)N[C@H](C(=O)N[C@H](C(=O)N[C@@H](CC(C)C)[C@@H](O)CC(=O)N[C@@H](C)C(=O)N[C@@H](CC(C)C)[C@@H](O)CC(=O)O)C(C)C)C(C)C` [Pepstatin] (Isovaleryl-VV[Sta]A[Sta]-OH) belongs 20%.
In the case of `CC(=O)N[C@@H](CC(C)C)C(=O)N[C@@H](CC(C)C)C(=O)N[C@H](C=O)CCCNC(=N)N` [Leupeptin], the inhibition at 100 µM was determined as 23%.

The experiment is the same for the next values; noted with them: Concentration 1000 μM.
For the compound `O=S(=O)(F)Cc1ccccc1` [PMSF, phenylmethanesulfonyl fluoride], the “Inhibiting Ratio (%)” value came out at 32%.

Staying with this experiment, now noted: Concentration 1000 μM; read-out: Inhibiting Ratio (%).
As to `O[C@H](CS)[C@H](O)CS` (racemic) [Dithiothreitol], the inhibition at 1000 µM turned out to be 96%.
For the compound `c1cnc2c(c1)ccc1cccnc12` [o-Phenanthroline], the inhibition at 1000 µM is 92%.

Still in this experiment, the particulars now being: read-out: Inhibiting Ratio (%).
Regarding `O=C(O)CN(CCN(CC(=O)O)CC(=O)O)CC(=O)O` [Ethylenediaminetetraacetic acid], the inhibition at 1000 µM came to 70%.
